In patent publication US20130165641A1, “6,11-BRIDGED BIARYL MACROLIDES” (Enanta Pharmaceuticals, Inc., priority 2007, published 2013):
Values after ≈ are worked out from the molar mass of the structure shown.

System: MRSA
Test: MIC by micro-dilution method, MRSA isolates
Type: cell-based, Staphylococcus aureus
Conditions: compounds of Formula XVI; for MIC MRSA 7662: MRSA isolate 7662; for MIC MRSA 33591: MRSA isolate 33591
Method: Susceptibility tests can be used to quantitatively measure the in vitro activity of an antimicrobial agent against a given bacterial isolate. Compounds are tested for in vitro antibacterial activity by a micro-dilution method. Minimal Inhibitory Concentration (MIC) is determined in 96 well microtiter plates utilizing the appropriate broth medium for the observed bacterial isolates. […] The diluted compounds (2 μl/well) are then transferred into sterile, uninoculated medium (0.2 mL) by use of a 96 fixed tip-pipetting station. The inoculum for each bacterial strain is standardized to approximately 5×10^5 CFU/mL by optical comparison to a 0.5 McFarland turbidity standard. The plates are inoculated with 10 μl/well of adjusted bacterial inoculum. The 96 well plates are covered and incubated at 35+/−2° C. for 24 hours in ambient air environment. Following incubation, plate wells are visually examined by Optical Density measurement for the presence of growth (turbidity). The lowest concentration of an antimicrobial agent at which no visible growth occurs is defined as the MIC.
All in vitro testing follows the guidelines described in the Approved Standards M7-A7 protocol, published by the Clinical Laboratory Standards Institute (CLSI).

| MIC MRSA 7662 [µg/mL] | MIC MRSA 33591 [µg/mL] | Compound |
| --- | --- | --- |
| 4.00 (≈ 4.5 µM) | 8.00 (≈ 9 µM) | CCC(=O)N=C1[C@H](C)C[C@@]2(C)OC/C(=N/OCc3ncc(-c4cccc(N)n4)o3)CO[C@H]([C@H]1C)[C@](C)(O)[C@@H](CC)OC(=O)[C@@](C)(F)C(=O)[C@H](C)[C@H]2O[C@@H]1O[C@H](C)C[C@H](N(C)C)[C@H]1O [Example 134] |
| 4 (≈ 4.57 µM) | 8 (≈ 9.14 µM) | CC[C@H]1OC(=O)[C@@](C)(F)C(=O)[C@H](C)[C@@H](O[C@@H]2O[C@H](C)C[C@H](N(C)C)[C@H]2O)[C@@]2(C)C[C@@H](C)C(=NC(C)=O)[C@H](C)[C@@H](OC/C(=N\OCc3coc(-c4cccc(N)n4)n3)CO2)[C@]1(C)O [Example 126] |
| 8 (≈ 9.03 µM) | 8 (≈ 9.03 µM) | CCC(=O)N=C1[C@H](C)C[C@@]2(C)OC/C(=N/OCc3ccc(-c4nc(N)cs4)cc3)CO[C@H]([C@H]1C)[C@](C)(O)[C@@H](CC)OC(=O)[C@H](C)C(=O)[C@H](C)[C@H]2O[C@@H]1O[C@H](C)C[C@H](N(C)C)[C@H]1O [Example 121] |
| 2.00 (≈ 2.17 µM) | 4.00 (≈ 4.35 µM) | CC[C@H]1OC(=O)[C@@](C)(F)C(=O)[C@H](C)[C@@H](O[C@@H]2O[C@H](C)C[C@H](N(C)C)[C@H]2O)[C@@]2(C)C[C@@H](C)C(=NC(=O)C(C)C)[C@H](C)[C@@H](OC/C(=N\OCc3ccc(-c4nsc(N)n4)cn3)CO2)[C@]1(C)O [Example 130] |
| 4 (≈ 4.44 µM) | 8 (≈ 8.89 µM) | CCC(=O)N=C1[C@H](C)C[C@@]2(C)OC/C(=N/OCc3ccc(-c4nccc(N)n4)cn3)CO[C@H]([C@H]1C)[C@](C)(O)[C@@H](CC)OC(=O)[C@@](C)(F)C(=O)[C@H](C)[C@H]2O[C@@H]1O[C@H](C)C[C@H](N(C)C)[C@H]1O [Example 113] |
| 8 (≈ 8.97 µM) | 16 (≈ 17.9 µM) | CC[C@H]1OC(=O)[C@@](C)(F)C(=O)[C@H](C)[C@@H](O[C@@H]2O[C@H](C)C[C@H](N(C)C)[C@H]2O)[C@@]2(C)C[C@@H](C)C(=NC(C)=O)[C@H](C)[C@@H](OC/C(=N\OCc3ccc(-c4nsc(N)n4)cn3)CO2)[C@]1(C)O [Example 107] |
| 4.00 (≈ 4.41 µM) | 8.00 (≈ 8.83 µM) | CCC(=O)N=C1[C@H](C)C[C@@]2(C)OC/C(=N/OCc3ccc(-c4nsc(N)n4)nc3)CO[C@H]([C@H]1C)[C@](C)(O)[C@@H](CC)OC(=O)[C@@](C)(F)C(=O)[C@H](C)[C@H]2O[C@@H]1O[C@H](C)C[C@H](N(C)C)[C@H]1O [Example 129] |
| 4 (≈ 4.42 µM) | 8 (≈ 8.84 µM) | CCC(=O)N=C1[C@H](C)C[C@@]2(C)OC/C(=N/OCc3ccc(-c4csc(N)n4)cn3)CO[C@H]([C@H]1C)[C@](C)(O)[C@@H](CC)OC(=O)[C@@](C)(F)C(=O)[C@H](C)[C@H]2O[C@@H]1O[C@H](C)C[C@H](N(C)C)[C@H]1O [Example 125] |

Continued, molecule first:

| Compound | MIC MRSA 7662 [µg/mL] | MIC MRSA 33591 [µg/mL] |
| --- | --- | --- |
| C=Cc1cn(-c2ccc(CON=C3COC4C(C)C(=NC(C)=O)C(C)CC(C)(OC3)C(OC3OC(C)CC(N(C)C)C3O)C(C)C(=O)C(C)(F)C(=O)OC(CC)C4(C)O)nc2)nc1N (stereo not shown) [Example 96] | 8 (≈ 8.89 µM) | 8 (≈ 8.89 µM) |
| CCC1OC(=O)C(C)(F)C(=O)C(C)C(OC2OC(C)CC(N(C)C)C2O)C2(C)CC(C)C(=NC(=O)C(C)C)C(C)C(OCC(=NOCc3ccc(-n4ccc(N)n4)nc3)CO2)C1(C)O (stereo not shown) [Example 86] | 4 (≈ 4.43 µM) | 4 (≈ 4.43 µM) |
| CCC1OC(=O)C(C)(F)C(=O)C(C)C(OC2OC(C)CC(N(C)C)C2O)C2(C)CC(C)C(=NC(=O)C3CC3)C(C)C(OCC(=NOCc3ccc(-n4ccc(N)n4)cn3)CO2)C1(C)O (stereo not shown) [Example 94] | 8 (≈ 8.89 µM) | 8 (≈ 8.89 µM) |
| CCC(=O)N=C1C(C)CC2(C)OCC(=NOCc3ccc(-n4ccc(N)n4)cn3)COC(C1C)C(C)(O)C(CC)OC(=O)C(C)(F)C(=O)C(C)C2OC1OC(C)CC(N(C)C)C1O (stereo not shown) [Example 92] | 2 (≈ 2.25 µM) | 4 (≈ 4.5 µM) |
| CCC1OC(=O)C(C)C(=O)C(C)C(OC2OC(C)CC(N(C)C)C2O)C2(C)CC(C)C(=NC(=O)C(C)C)C(C)C(OCC(=NOCc3ccc(-n4ccc(N)n4)cc3)CO2)C1(C)O (stereo not shown) [Example 90] | 8 (≈ 9.06 µM) | 8 (≈ 9.06 µM) |
| CC[C@H]1OC(=O)[C@@](C)(F)C(=O)[C@H](C)[C@@H](O[C@@H]2O[C@H](C)C[C@H](N(C)C)[C@H]2O)[C@@]2(C)C[C@@H](C)C(=NC(C)=O)[C@H](C)[C@@H](OC/C(=N\OCc3ccc(-c4nc(N)cs4)cn3)CO2)[C@]1(C)O [Example 101] | 2 (≈ 2.24 µM) | 4 (≈ 4.49 µM) |
